System: Wistar rats
Experiment: hypoglycaemic activity in 18 hour fasted Wistar rats
Type: in vivo
Method: The compound was evaluated for hypoglycaemic activity in 18 hour fasted Wistar rats. […] The mean fall recorded was 24 mg/100 ml blood, from an initial mean of 91 to mean of 67 mg/100 ml blood.

Compound | mean fall (positive control, dose not given) | hypoglycaemic effect (dose of 15 mg/kg p.o.) | mean (after treatment) (dose of 15 mg/kg p.o., from an initial mean of 91) | mean fall (dose of 15 mg/kg p.o., initial mean of 91 mg/100 ml blood)
CCCNC(=O)NS(=O)(=O)c1ccc(Cl)cc1 [chlorpropamide, reference compound] | 18 mg/100 ml of blood | – | – | –
OC[C@H]1O[C@@H](c2c(O)ccc3cc(Cc4ccc(O)cc4)oc23)[C@H](O)[C@@H](O)[C@@H]1O [formula 1, 6-hydroxy-2-p-hydroxybenzylbenzofuran-7-C-β-D-glucopyranoside] | – | hypoglycaemic effect was recorded in all the treated rats | 67 mg/100 ml blood | 24 mg/100 ml blood
